Columns and labels:
SCC7 cells [1] = experiment: Photodynamic killing of cancer cells (PDT effect), MTT assay; type: cell-based; conditions: 24 h treatment, IR laser 671 nm at 1.59 J/cm^2, peptidesome fabricated in DW
Description: Having controlled the nano- and biostructural properties of the peptidesomes in terms of intracellular delivery efficiency and cytotoxicity, we then evaluated their tumoricidal photodynamic effects in tissue culture. Squamous cell carcinoma 7 (SCC7) cells were treated with free Pa or the peptidesome←Pa for 24 h, followed by infrared (IR) laser irradiation (671 nm) at 1.59 J/cm^2. Cytotoxicity as a measure of the photodynamic killing of cancer cells was determined using the MTT assay. […] To probe the reason behind this negative result, the amount of single oxygen (SO) generated was quantified after the incubation of both groups in cell culture medium (with serum). The amount of SO was far higher for free Pa than for peptidesome←Pa, which accounts for the results of the PDT assay (Fig. 4b). It has been shown that the aggregation of porphyrin derivatives reduced SO generation and negatively affected PDT efficacy. […] The aggregation would have been more severe in cell culture medium containing serum. Taken together, the nonspecific aggregation of the peptidesome←Pa is likely responsible for the reduced SO generation and the lack of PDT effect. The morphology of peptidesome before and after NIR irradiation was also monitored by AFM (Fig. S12). […]

[2] = Quantification of singlet oxygen with Singlet Oxygen Sensor Green (SOSG); conditions: RPMI 1640 medium with 10% foetal bovine serum, IR laser irradiation
Description: Fig. 4 Nonspecific aggregation of peptidesomes under physiological conditions. (a) PDT effect in SCC7 cells. (b) Quantification of singlet oxygen with Singlet Oxygen Sensor Green (SOSG). The samples were dissolved in RPMI 1640 medium containing 10% foetal bovine serum, and IR laser irradiation was performed for the indicated times. (c) AFM image of the peptidesome←Pa in RPMI 1640 medium (without the serum). R6:RGD2 = 1:9.

SCC7 cells [3] = experiment: In vitro cellular uptake, CLSM and flow cytometry; type: cell-based; conditions: 4 h treatment, flow cytometry of Pa fluorescence
Description: Cellular uptake of materials in SCC7 cells was analyzed based on the intrinsic fluorescence of Pa via CLSM (LSM700, Carl Zeiss, Germany) and flow cytometry (FACS Canto II, BD Biosciences, Bedford, MA, USA). SCC7 cells were seeded in 24-well plates at a density of 5 × 10^4 and incubated overnight. Then, 200 μL of the sample in an appropriate solution was added to 800 μL of complete medium for each well. The cells were treated with the samples for 4 h followed by the removal of the sample solution and the washing step. For cell imaging, nuclei were also stained with Hoechst 33,342.

SCC7 tumor-bearing mice = experiment: In vivo antitumor (photodynamic) efficacy; set-up: species or system mouse; conditions: end of therapy (14 days)
Description: The SCC7 tumor-bearing mouse models were prepared similarly to the in vivo imaging experiment, and each sample was prepared in the same way as in the in vivo IVIS imaging experiments. The samples were intravenously injected into the mice when the tumor volume reached approximately 50 mm^3. Three hours postinjection of the samples, NIR laser (671 nm) irradiation was administered to the tumor site with a power of 0.53 W/cm^2 for 15 min, and the same sample injection and NIR irradiation procedures were repeated at the next day. The tumor volume and body weight were recorded every two days. At the end of the therapy, major organs and tumors were dissected for histological analysis. They were fixed, sliced, stained with haematoxylin and eosin (H&E), and observed with a microscope (AxioImager A1, Zeiss, Germany).

[4] = stated without reference; cited from earlier work
Text: As stated in Lipinski's rule of five, most small molecule drugs are lipophilic overall. Pheophorbide a (Pa), a small molecule drug used in this study, is also hydrophobic with a low water solubility of approximately 0.014 g/L. Pa is a porphyrin derivative of plant chlorophyll and has been used as a photosensitizer for photodynamic therapy (PDT). For noncovalent drug loading in R6 peptidesome, R6 and Pa were mixed in DW, and the solution was sonicated vigorously. After this drug loading process, the R6 peptidesomes underwent a morphological transformation into elongated supe ...

cells = experiment: Cytotoxicity of peptidesomes; type: cell-based; conditions: single-component peptidesomes (Fig. 3a)

Structure (SMILES)	PDT effect (cytotoxicity, MTT) (SCC7 cells [1])	amount of singlet oxygen (SO) generated, free Pa versus peptidesome←Pa [2]	cell internalization efficiency relative to peptidesome←Pa (SCC7 cells [3])	excised tumor weight, times larger than peptidesome←Pa (G&G)-treated group (SCC7 tumor-bearing mice)	weight of the excised tumor (SCC7 tumor-bearing mice; n = 4)	water solubility [4]	Cytotoxicity of peptidesomes (cells)
C=Cc1c(C)c2cc3nc(c4c5[nH]c(cc6nc(cc1[nH]2)C(C)=C6CC)c(C)c5C(=O)[C@@H]4C(=O)OC)[C@@H](CCC(=O)O)[C@@H]3C [Pa, Pheophorbide a]	strong dose-dependent PDT effect	far higher	5 fold	approximately 3 times	1222 mg	approximately 0.014 g/L	–
CCCCCCCCCCCC(=O)N[C@H]1CCCCNC(=O)[C@H](Cc2c[nH]c3ccccc23)NC(=O)CCC(=O)NCCOCCOCCNC(=O)[C@H](CCCNC(=N)N)NC(=O)[C@H](CCCNC(=N)N)NC(=O)[C@H](CCCNC(=N)N)NC(=O)[C@H](CCCNC(=N)N)NC(=O)[C@H](CCCNC(=N)N)NC(=O)[C@H](CCCNC(=N)N)NC(=O)CCC(=O)NCCOCCOCCNC(=O)[C@H](Cc2c[nH]c3ccccc23)NC1=O [R6]	–	–	–	–	–	–	highly toxic

Source: paper PMC9254122, “Structural control of self-assembled peptide nanostructures to develop peptide vesicles for photodynamic therapy of cancer” (Materials Today Bio, 2022)
